Source: article PMC8387461, “T cell receptor recognition of hybrid insulin peptides bound to HLA-DQ8” (Nature Communications, 2021)

Key:
[1] = tested on: SKW-3 A2.13 TCR cells; experiment: CD69 upregulation, SKW-3 A2.13 TCR cells; format: cell-based, human; settings: for MFI CD69: exp5
Protocol: (§1) For TCR transduced SKW-3 T cell lines (SKW-3-TCR), response to antigen was determined using flow cytometry to assess the level of upregulation of the T cell activation marker CD69. One hundred thousand BLCL 9031 cells (HLA-DQ8 + : HLA-DQA*03:01:01, HLA-DQB1*03:02) as APCs were incubated at 37 °C, 5% CO2 for 24 h with increasing concentrations of synthesised HIP ([…]; GLBiochem) or native C-peptide ([…]; GLBiochem) or 50 μg DQ8-glia-α1 (control) in 96 well round-bottomed plates. To confirm HLA-DQ8-restriction, 2 μg/ml (SKW-3-ET672-1) or 50 μg/ml (all other SKW-3-TCR cell lines) C-peptide or HIP pulsed BLCL 9031 cells were blocked with a final concentration of 20 μg/ml anti-HLA-DQ monoclonal antibody (clone SPV-L3) for 3 h before stimulation (i.e. before the addition of SKW-3-TCR cell lines). T-cell activation assay were performed by mixing 1 × 10^5 SKW-3-TCR cells, SKW-3 parental cells (control) or SP3.4 (HLA-DQ8-glia-α1 restricted T cell line; control) cells with the peptide-pulsed BLCL 9031 cells or with 5 μl anti-CD3/CD28 dynabeads (Thermo Fisher Scientific) (control) at 37 °C, 5% CO2 for 20 h before antibody staining. The activated induced SKW-3-TCR T cells were washed twice with FACS buffer (Phosphate buffered saline, 10% Fetal Calf Serum (FCS; Merck)) (350 g, 5 min), and stained a mixture of 1:100 diluted V450 mouse anti-human CD3 (clone UCHT1, BD Biosciences) and APC Mouse Anti-Human CD69 (Clone FN50, BD Biosciences) for 1 h on ice in the dark. The samples were washed twice with PBS buffer (350 g, 5 min) to remove excess antibodies. Afterward, the samples were stained for live/dead cells with Zombie NIR (Biolegend) for 30 min at RT in the dark before being washed 6 times with FACS buffer (350 g, 5 min). Before data acquisition, the samples were resuspended in 100 μl of FACS buffer and analysed via flow cytometry (LSR II; BD Biosciences; BD FACSDiva-8.0.1 software). Collected data were analysed using Flowjo v10.6.0 (FlowJo), and then Prism 9 (GraphPad Software). […] Using these settings, the median fluorescence intensity (MFI) corresponding to the relative level of CD69 expressed on the SKW-3-TCR.TCR cell lines was determined using Flowjo v10.6.0 software. The MFI of CD69 were analysed by using Prism 9 (GraphPad Software). Three to six independent experiments were conducted, and all sample were performed in duplicates. Statistical significance was determined using P-values generated by t-test or one-way ANOVA multiple comparison of the MFI of no-peptide-stimulated SKW-3-TCR T cells versa the MFI of peptide-stimulated SKW-3-TCR T cells.
(§2) Supplementary Figure 1. Antigen reactivity of T cells transduced with TCRs isolated from T1D patient clones and recent onset T1D patient PBMCs. a, b Expression of CD69 on the surface of TCR transduced SKW3 cell lines stimulated overnight with C-peptide-p ulsed BLCL 9031 (top panel), or HIP-p ulsed BLCL 9031 (bottom panel). The SKW3 cell lines transduced with a TCRs isolated from primary T1D T clones and b TCRs isolated from recent onset T1D patient PBMCs (TCR name indicated above the graphs), were cultured with BLCL 9031 (no peptide) or with serial diluted concentration of peptide as indicated (grey), or 50 µg/ml C-peptide/HIP-pulsed BLCL 9031 blocked by anti-H LA-D Q mAb (clone SPV-L3; 20 µg/ml) (black), or 50 µg/ml glia-α1-p ulsed BLCL 9031 (purple; control), or 50 µg/ml C-peptide/HIP peptide only (cyan; control), or T cell lines alone (pink; control). Due to the strong reactivity of the SKW-T CR E672-1 cell line to HIP, only 2 µg of HIP was used in anti-HLA-D Q mAb blocking experiments. All samples were performed in duplicates and the black dots are presented as the mean fluorescence intensity (MFI) of average of duplicated values from three to six (n=3, n=4, n=5 or n=6) independent experiments. […]
(§3) expression. The fold increase in MFI CD69 expression was calculated by dividing the average MFI CD69 from each sample by the average MFI CD69 from BLCL 9031 (no […]
(§4) peptide). […]

[2] = tested on: SKW-3 A5.5 TCR cells; experiment: CD69 upregulation, SKW-3 A5.5 TCR cells; format: cell-based, human;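 for Geometric CD3: measured on live single GFP+ RFP+ cells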
Protocol: as §1, §2, §3, §4

[3] = exp4, T cell +pep, 50 ug, replicate 1
[4] = exp4, T cell +pep, 50 ug, replicate 2
[5] = exp4, block, 50 ug, replicate 1
[6] = exp4, block, 50 ug, replicate 2
[7] = exp5, T cell +pep, 50 ug, replicate 1
[8] = exp5, T cell +pep, 50 ug, replicate 2
[9] = exp5, block, 50 ug, replicate 1
[10] = exp5, block, 50 ug, replicate 2
[11] = CD69 MFI, flow cytometry, peptide-pulsed BLCL 9031, 20 h

With Cpeptide the “MFI CD69” value ([1]; 0.016 ug, replicate 1) was 1218, the “MFI CD69” value ([1]; 0.016 ug, replicate 2) was 1366 and the “MFI CD69” value ([1]; 0.08 ug, replicate 1) was 1349. The “MFI CD69” value ([1]; 0.08 ug, replicate 2) was 1478, the “MFI CD69” value ([1]; 0.4 ug, replicate 1) was 1535 and the “MFI CD69” value ([1]; 0.4 ug, replicate 2) was 1892. For the same substance, the “MFI CD69” value ([1]; 2 ug, replicate 1) was 1776, the “MFI CD69” value ([1]; 2 ug, replicate 2) was 2613 and the “MFI CD69” value ([1]; 10 ug, replicate 1) was 4442. For the same substance, the “MFI CD69” value ([1]; 10 ug, replicate 2) was 4296, the “MFI CD69” value ([1]; 50 ug, replicate 1) was 5931 and the “MFI CD69” value ([1]; 50 ug, replicate 2) was 5830. The “MFI CD69” value ([1]; 100 ug, replicate 1) was 5697, the “MFI CD69” value ([1]; 100 ug, replicate 2) was 6898 and the “MFI CD69” value ([1]; T cell +pep, 50 ug, replicate 1) was 712. The “MFI CD69” value ([1]; T cell +pep, 50 ug, replicate 2) was 880, the “MFI CD69” value ([1]; block, 50 ug, replicate 1) was 796 and the “Geometric CD3” value ([2]; exp4, 0.016 ug, replicate 1) was 970. The “MFI CD69” value ([2]; exp4, 0.016 ug, replicate 1) was 898, the “Geometric CD3” value ([2]; exp4, 0.016 ug, replicate 2) was 979 and the “MFI CD69” value ([2]; exp4, 0.016 ug, replicate 2) was 906. For the same substance, the “Geometric CD3” value ([2]; exp4, 0.08 ug, replicate 1) was 1058, the “MFI CD69” value ([2]; exp4, 0.08 ug, replicate 1) was 987 and the “Geometric CD3” value ([2]; exp4, 0.08 ug, replicate 2) was 1030. For the same substance, the “MFI CD69” value ([2]; exp4, 0.08 ug, replicate 2) was 964, the “Geometric CD3” value ([2]; exp4, 0.4 ug, replicate 1) was 1103 and the “MFI CD69” value ([2]; exp4, 0.4 ug, replicate 1) was 1037. For the same substance, the “Geometric CD3” value ([2]; exp4, 0.4 ug, replicate 2) was 1058, the “MFI CD69” value ([2]; exp4, 0.4 ug, replicate 2) was 984 and the “Geometric CD3” value ([2]; exp4, 2 ug, replicate 1) was 1233. For the same substance, the “MFI CD69” value ([2]; exp4, 2 ug, replicate 1) was 1175, the “Geometric CD3” value ([2]; exp4, 2 ug, replicate 2) was 1197 and the “MFI CD69” value ([2]; exp4, 2 ug, replicate 2) was 1130. The “Geometric CD3” value ([2]; exp4, 10 ug, replicate 1) was 1614, the “MFI CD69” value ([2]; exp4, 10 ug, replicate 1) was 1582 and the “Geometric CD3” value ([2]; exp4, 10 ug, replicate 2) was 1577. For the same substance, the “MFI CD69” value ([2]; exp4, 10 ug, replicate 2) was 1557, the “Geometric CD3” value ([2]; exp4, 50 ug, replicate 1) was 2018 and the “MFI CD69” value ([2]; exp4, 50 ug, replicate 1) was 2047. The “Geometric CD3” value ([2]; exp4, 50 ug, replicate 2) was 1694, the “MFI CD69” value ([2]; exp4, 50 ug, replicate 2) was 1685 and the “Geometric CD3” value ([2]; exp4, 100 ug, replicate 1) was 3490. The “MFI CD69” value ([2]; exp4, 100 ug, replicate 1) was 3626, the “Geometric CD3” value ([2]; exp4, 100 ug, replicate 2) was 3657 and the “MFI CD69” value ([2]; exp4, 100 ug, replicate 2) was 3824. For the same substance, the “Geometric CD3” value [2, 3] was 739, the “MFI CD69” value [2, 3] was 670 and the “Geometric CD3” value [2, 4] was 745. The “MFI CD69” value [2, 4] was 679, the “Geometric CD3” value [2, 5] was 1084 and the “MFI CD69” value [2, 5] was 1022. The “Geometric CD3” value [2, 6] was 1068, the “MFI CD69” value [2, 6] was 1007 and the “Geometric CD3” value ([2]; exp5, 0.016 ug, replicate 1) was 1160. The “MFI CD69” value ([2]; exp5, 0.016 ug, replicate 1) was 1101, the “Geometric CD3” value ([2]; exp5, 0.016 ug, replicate 2) was 1175 and the “MFI CD69” value ([2]; exp5, 0.016 ug, replicate 2) was 1127. For the same substance, the “Geometric CD3” value ([2]; exp5, 0.08 ug, replicate 1) was 1165, the “MFI CD69” value ([2]; exp5, 0.08 ug, replicate 1) was 1110 and the “Geometric CD3” value ([2]; exp5, 0.08 ug, replicate 2) was 1145. For the same substance, the “MFI CD69” value ([2]; exp5, 0.08 ug, replicate 2) was 1084, the “Geometric CD3” value ([2]; exp5, 0.4 ug, replicate 1) was 1217 and the “MFI CD69” value ([2]; exp5, 0.4 ug, replicate 1) was 1166. For the same substance, the “Geometric CD3” value ([2]; exp5, 0.4 ug, replicate 2) was 1219, the “MFI CD69” value ([2]; exp5, 0.4 ug, replicate 2) was 1163 and the “Geometric CD3” value ([2]; exp5, 2 ug, replicate 1) was 1325. For the same substance, the “MFI CD69” value ([2]; exp5, 2 ug, replicate 1) was 1295, the “Geometric CD3” value ([2]; exp5, 2 ug, replicate 2) was 1288 and the “MFI CD69” value ([2]; exp5, 2 ug, replicate 2) was 1227. For the same substance, the “Geometric CD3” value ([2]; exp5, 10 ug, replicate 1) was 1582, the “MFI CD69” value ([2]; exp5, 10 ug, replicate 1) was 1562 and the “Geometric CD3” value ([2]; exp5, 10 ug, replicate 2) was 1544. For the same substance, the “MFI CD69” value ([2]; exp5, 10 ug, replicate 2) was 1512, the “Geometric CD3” value ([2]; exp5, 50 ug, replicate 1) was 2599 and the “MFI CD69” value ([2]; exp5, 50 ug, replicate 1) was 2696. The “Geometric CD3” value ([2]; exp5, 50 ug, replicate 2) was 2645, the “MFI CD69” value ([2]; exp5, 50 ug, replicate 2) was 2725 and the “Geometric CD3” value ([2]; exp5, 100 ug, replicate 1) was 3392. The “MFI CD69” value ([2]; exp5, 100 ug, replicate 1) was 3527, the “Geometric CD3” value ([2]; exp5, 100 ug, replicate 2) was 3273 and the “MFI CD69” value ([2]; exp5, 100 ug, replicate 2) was 3433. For the same substance, the “Geometric CD3” value [2, 7] was 840, the “MFI CD69” value [2, 7] was 793 and the “Geometric CD3” value [2, 8] was 856. For the same substance, the “MFI CD69” value [2, 8] was 819, the “Geometric CD3” value [2, 9] was 761 and the “MFI CD69” value [2, 9] was 694. For the same substance, the “Geometric CD3” value [2, 10] was 846 and the “MFI CD69” value [2, 10] was 770.

In the case of GQVELGGGNAVEVLK [HIP], the “sensitivity to HIP versus C-peptide” value [1, 11] is reported as “five fold more sensitive to HIP than C-peptide” and the “sensitivity to HIP over C-peptide” value [2, 11] is reported as ~ 3000 fold.
